Test results reported in patent US7880021B2, “Compounds and kits for the detection and the quantification of cell apoptosis” (Centre National de la Recherche Scientifique (CNRS), priority 2005, dated 2011).

What was measured:
[1] = Fluorescence properties of the probes (absorption maximum, band resolution); format: physicochemical
Text: The probe TCN12S is an analog of F2N12S and was synthesized to improve the fluorescence properties. Indeed, substitution of the 2-phenyl group with 2-thienyl shifts the absorption maximum from 420 nm to 445 nm, making this probe suitable for excitation with a He/Cd laser (442 nm). Moreover, the resolution between the two emission bands increases from 90 nm (F2N12S) to 120 nm (TCN12S), favoring two-color ratiometric detection.

3T3 fibroblasts = assay: Flow cytometry F2N12S intensity ratio in 3T3 fibroblasts; format: cell-based; settings: data not shown
Text: The probe of the invention F2N12S has been combined with PI and the fluorescence intensities of PI have been represented as a function of the T*/N* ratio of F2N12S (FIG. 6c). In this case, the populations of apoptotic and dead cells are clearly discriminated by using the differences in the PI intensities. […] This conclusion was further strengthened when the populations discriminated by the F2N12S/PI couple were colored according to their response with the annexin V-FITC/PI couple (FIG. 6d).

CEM T cells = assay: Two-color confocal ratiometric imaging of normal and apoptotic cells; format: cell-based, human
Experimental: FIG. 5: Confocal fluorescence ratiometric images of CEM cells stained with F2N12S: normal cells (a); apoptotic cells, obtained by FITC-annexin based sorting of cells treated with actinomycin (b); and actinomycin-treated without cell sorting (c). The images were recorded after a 10 min incubation of the probe with the cells. Scale bar, 10 μm.
Human lymphoid CEM T cells were cultured in X-vivo 15 medium (Cambrex, France) at 37° C. in humidified 5% CO2 atmosphere. Cell viability was checked by trypan blue exclusion. Cells were seeded at 5×10^5 cells/ml in the presence or absence of actinomycin D (0.5 μg/ml) for 18 h. Cells were pelleted by centrifugation at 1500 rpm for 5 min and resuspended at 1×10^6 cells/ml in X-vivo 15 medium for experiments.
The cells were washed twice by HBSS before each experiment to eliminate fetal bovine serum. In sorting experiments, cells were resuspended in the binding buffer and labeled with the annexin V-FITC kit. For fluorescence measurements with the probe of the invention F2N12S (fluorometry, flow cytometry and confocal microscopy), cells were resuspended in HBSS with 0.1 μM F2N12S. Then, the cell suspension was placed in a shaker bath for 10 min in the incubator. The staining pattern of the cells was checked with a Confocal Imaging System MRC-1024 (BioRad) to ascertain that fluorescence originates from the plasma membrane.
(§1) For collecting cell images, a Laser Scanning Confocal Imaging System MRC-1024 (Bio-Rad) was used. Cells in chambered cover glass were prepared by following the preparation procedure described above. The 442 nm line of a HeCd laser was used as the excitation light source. Emission was collected by using two filters: 485/30 for the N* band and 585LP for the T* band. Collected images were analyzed by the Amira 3.0 software.
Two-color confocal fluorescence microscopy of CEM T cells stained with F2N12S was performed. Emission light was collected in two spectral regions: at 470-500 nm to monitor the emission of the N* band and above 585 nm to collect the emission of the T* band. Ratiometric images were obtained by dividing the intensity of the T* band by the intensity of the N* band and were used to monitor the cell plasma membrane changes induced by addition of actinomycin D (FIG. 5, a-c).

T lymphocytes = assay: Laser scanning confocal ratiometric imaging of T lymphocytes; format: cell-based
Experimental: FIG. 9: Laser scanning confocal imaging of T lymphocytes stained with annexin V-FITC (a) and F2N12S (b and c). Combination of transmission and fluorescence images of cells treated with actinomycin D for 18 hours (please complete this sentence). […] Due to their low binding to annexin V, normal cells are not visualized in the fluorescence images. (b and c) Ratiometric images of normal (b) and actinomycin D-treated (c) cells stained with 0.2 μM F2N12S. […] The size of the images is 60×73.1 μm.
FIG. 10: Time-series of confocal fluorescence ratiometric images of actinomycin D-treated T lymphocytes stained with F2N12S. The cells were treated with actinomycin D for 18 hours and then, incubated with the probe (0.2 μM) for 5 min. Images were recorded at 1 min (a), 10 min (b) and 20 min (c) post incubation. […] The size of the images is 60×73.1 μm.
as §1
To further compare F2N12S and annexinV-derived probes, two-color ratiometric images of F2N12S-labeled cells undergoing apoptosis were recorded by laser scanning confocal microscopy and compared with intensity based images obtained using annexin V-FITC. […] Moreover, the fluorescence intensity of apoptotic cells varies considerably from cell to cell. These differences are difficult to interpret since the intensity depends on the probe concentration as well as on the size and confluence of the cells. […] According to our spectroscopy and flow cytometry data, the latter cells are apoptotic. […] Thus, unlike annexin V-FITC, these probes provide an absolute parameter, the intensity ratio, which can be calibrated, and can characterize the level of apoptosis independently of the probe/cell concentration and the excitation light intensity. In addition, the inventors have observed that in normal cells and cells on the initial steps of apoptosis, the T*/N* intensity ratio is not evenly distributed within the plasma membrane of a given cell. This may indicate an inhomogeneous lipid composition of their plasma membranes that is likely related to the presence of lipid domains.
The inventors also follow apoptotic transformation of the plasma membrane as a function of time. Normal and actinomycin D-treated cells were stained with the corresponding probe and the fluorescence images were subsequently recorded during 20 min. […]

[2] = actinomycin D-treated cells not sorted by cytometry

With “1-dodecanaminium, N-[[2-[4-Diethylaminophenyl]-3-hydroxychromon-6-yl]-methyl]-N-methyl-N-(3-sulfopropyl)-, inner salt [F2N12S]” the absorption maximum [1] was 420 nm, the “resolution between the two emission bands” value [1] was 90 nm and the “F2N12S intensity ratio values compared with T lymphoblastoid cells” value (3T3 fibroblasts) was “very similar”. The “fluorescence intensity ratio T*/N*, apoptotic cells” value (CEM T cells; [2]) was roughly 0.25, the “fluorescence intensity ratio T*/N*, living cells” value (CEM T cells; [2]) was roughly 1 and the “fluorescence intensity ratio T*/N* at the plasma membrane” value (CEM T cells; apoptotic cells obtained by cell sorting, average) was “around 0.25”. For the same substance, the “change in the T*/N* ratio, non-treated versus apoptotic cells” value (CEM T cells; confocal imaging) was 4 fold, the “fluorescence intensity ratio T*/N* at the plasma membrane” value (CEM T cells; non-treated cells, N* 470-500 nm, T* above 585 nm) was roughly 1 and the “time-dependent change of the fluorescence images” value (T lymphocytes; actinomycin D-treated cells, images recorded during 20 min) was “relatively fast change in the emission color”. For the same substance, the “which cells are stained in fluorescence images” value (T lymphocytes; normal and actinomycin D-treated cells) was “stains both normal (FIG. 9b) and apoptotic cells (FIG. 9c) but in different colors”.
